# According to publication PMC12481569, “Novltex: A New Class of Antibiotics with Potent Activity against Multidrug-Resistant Bacterial Pathogens–Design, Synthesis, and Biological Evaluation” (Journal of Medicinal Chemistry, 2025):
# Where “and” joins values, the source holds several entries; their conditions need not be identical. Equal values may be shown once. Read-outs that look alike come from different tables or passages of the source. Positions of bridges follow the written chain, without caps; N, C: chain ends. Non-standard residues stand in square brackets, D forms with d. Residues, ends and D or L forms follow the SMILES beside them. dChg = N[C@@H](C(=O)O)C1CCCCC1
# How the values were obtained:
# Assay in all cases: microbe, parasite or virus in culture
# [1] = tested on: Multidrug-Resistant (MDR) E. faecium; conditions: for MIC: Enterococcus faecium
# Method: (§1) We further evaluated analogue 12 against multidrug-resistant (MDR) strains of S. aureus (acquired from the NARSA collection) and MDR E. faecium (acquired from International Health Management Associates, IHMA, Europe Sarl), comparing its activity to various classes of clinically used antibiotics (Table ).
# (§2) MICs were performed as previously reported 4. For MIC testing all peptides were dissolved in DMSO.
# (§3) Bacterial cultures were grown overnight on Mueller-Hinton Agar (MHA) plates and adjusted to a final inoculum of 10^5 – 10^6 CFU/mL. 100 µl of ino culum in Meuller -Hinton broth (MHB) was mixed with equal volume of peptides (dissolved in MHB) at 2x their concentration in a 96 well plate . For daptomycin MIC determination, the same protocol was followed with the addition of 50 mg/L calcium chloride to the medium. MIC values were determined in the media contain ing polysorbate 80 (0.002%, v/v) to prevent non -specific adsorption of the peptides to plastic surfaces. The final peptides concentrations ranged from 0.0625 – 32 µg/mL. The 96 well plates were then incubated at 37 °C for 24 h. All the experiments were performed in two independent duplicates and the MIC was determined as the lowest concentration in which no visible growth was observed.
# (§4) Antibiotics MIC break points ( µg/mL)
# (§5) Table. S4: Susceptibility cut-off values (MIC breakpoints) for various clinical antibiotics. […]
# [2] = tested on: Multidrug-Resistant (MDR) S. aureus; conditions: for MIC: Staphylococcus aureus; for susceptibility/resistance of the S. aureus isolates based on the MIC breakpoints: four MDR S. aureus isolates
# Method: as §1, §2, §3, §4, §5
# MRSA ATCC 33591 = type: cell-based, Staphylococcus aureus; conditions: for MIC against MRSA ATCC 33591: 24 h, two independent duplicates
# Method: as §2
# as §3, with “observed. […]” for “observed.”
# [3] = 24 h, read-out: MIC, Enterococcus faecium 1563254
# [4] = 24 h, read-out: MIC, Enterococcus faecium 1581582
# [5] = 24 h, read-out: MIC, Enterococcus faecium 1766686
# [6] = 24 h, read-out: MIC, Staphylococcus aureus NR 45914
# [7] = 24 h, read-out: MIC, Staphylococcus aureus NR 45926
# [8] = 24 h, read-out: MIC, Staphylococcus aureus NR 45930
# [9] = 24 h, read-out: MIC, Staphylococcus aureus NR 46062
# [10] = broth dilution in MHB with 0.002% v/v polysorbate 80, inoculum 10^5-10^6 CFU/mL, 37 °C, no visible growth, Table 1
# [11] = Table 2, MHB with 0.002% polysorbate 80, 37 °C
molecule,measurement,setting,value
CC1(C)S[C@@H]2[C@H](NC(=O)[C@H](N)c3ccccc3)C(=O)N2[C@H]1C(=O)O [Ampicillin],MIC,[1]; [3],> 32 µg/mL
same,MIC,[1]; [4],> 32 µg/mL
same,MIC,[1]; [5],> 32 µg/mL
same,MIC,[2]; [6],2 µg/mL
same,MIC,[2]; [7],32 µg/mL
same,MIC,[2]; [8],8 µg/mL
same,MIC,[2]; [9],8 µg/mL
same,susceptibility/resistance of the S. aureus isolates based on the MIC breakpoints,[2],3 out of 4 isolates showed resistance
CO/N=C(\C(=O)N[C@@H]1C(=O)N2C(C(=O)O)=C(COC(C)=O)CS[C@H]12)c1csc(N)n1 [Cefotaxime],MIC,[1]; [3],> 32 µg/mL
same,MIC,[1]; [4],> 32 µg/mL
same,MIC,[1]; [5],> 32 µg/mL
same,MIC,[2]; [6],4 µg/mL
same,MIC,[2]; [7],16 µg/mL
same,MIC,[2]; [8],8 µg/mL
same,MIC,[2]; [9],16 µg/mL
C[C@H]1COc2c(N3CCN(C)CC3)c(F)cc3c(=O)c(C(=O)O)cn1c23 [Levofloxacin],MIC,[1]; [3],32 µg/mL
same,MIC,[1]; [4],32 µg/mL
same,MIC,[1]; [5],32 µg/mL
same,MIC,[2]; [6],1 µg/mL
same,MIC,[2]; [7],4 µg/mL
same,MIC,[2]; [8],> 32 µg/mL
same,MIC,[2]; [9],32 µg/mL
same,susceptibility/resistance of the S. aureus isolates based on the MIC breakpoints,[2],3 out of 4 isolates showed resistance
CC(=O)NC[C@H]1CN(c2ccc(N3CCOCC3)c(F)c2)C(=O)O1 [Linezolid],MIC,[1]; [3],16 µg/mL
same,MIC,[1]; [4],1 µg/mL
same,MIC,[1]; [5],1 µg/mL
same,MIC,"[1]; read-out: MIC, two E. faecium clinical isolates that remained susceptible to linezolid",1 µg/mL
same,MIC,[2]; [6],2 µg/mL
same,MIC,[2]; [7],32 µg/mL
same,MIC,[2]; [8],4 µg/mL
same,MIC,[2]; [9],16 µg/mL
same,susceptibility/resistance of the S. aureus isolates based on the MIC breakpoints,[2],3 out of 4 isolates showed resistance
CC(C)C[C@@H]1NC(=O)[C@@H](CC(C)C)NC(=O)[C@H](C)NC(=O)[C@@H](NC(=O)[C@H](CO)NC(=O)[C@@H](CCCCN)NC(=O)[C@@H](CC(C)C)NC(=O)[C@@H](N)Cc2ccccc2)[C@@H](C)OC1=O [analogue 1],MIC against MRSA ATCC 33591,MRSA ATCC 33591; [10],8 µg/mL
CC(C)C[C@@H]1NC(=O)[C@@H](CC(C)C)NC(=O)[C@H](C)NC(=O)[C@H](NC(=O)[C@H](CO)NC(=O)[C@@H](CCCCN)NC(=O)[C@@H](CC(C)C)NC(=O)[C@@H](N)Cc2ccccc2)[C@H](C)OC1=O [analogue 2],MIC against MRSA ATCC 33591,MRSA ATCC 33591; [10],32 µg/mL
CC(C)C[C@H](NC(=O)[C@H](N)Cc1ccccc1)C(=O)N[C@@H](CCCCN)C(=O)N[C@H](CO)C(=O)N[C@H]1C(=O)N[C@@H](C)C(=O)N[C@@H](CC(C)C)C(=O)N[C@@H](CC(C)C)C(=O)O[C@H]1C [analogue 3],MIC against MRSA ATCC 33591,MRSA ATCC 33591; [10],32 µg/mL
CC(C)C[C@@H]1NC(=O)[C@H](C)NC(=O)[C@H](NC(=O)[C@H](CO)NC(=O)[C@@H](CCCCN)NC(=O)[C@@H](CC(C)C)NC(=O)[C@@H](N)Cc2ccccc2)[C@H](C)OC(=O)[C@H](CC(C)C)NC1=O [analogue 4],MIC against MRSA ATCC 33591,MRSA ATCC 33591; [10],2 to 4 µg/mL
same,MIC against MRSA ATCC 33591,"MRSA ATCC 33591; broth dilution in MHB with 0.002% v/v polysorbate 80, inoculum 10^5-10^6 CFU/mL, 37 °C, no visible growth, Table 1, listed as Novltex analogue 4",4 µg/mL
CC(C)C[C@H](NC(=O)[C@H](N)Cc1ccccc1)C(=O)N[C@H](CCCCN)C(=O)N[C@@H](CO)C(=O)N[C@H]1C(=O)N[C@@H](C)C(=O)N[C@@H](CC(C)C)C(=O)N[C@@H](CC(C)C)C(=O)O[C@H]1C [analogue 5],MIC against MRSA ATCC 33591,MRSA ATCC 33591; [10],> 32 µg/mL
CC(C)C[C@@H]1NC(=O)[C@H](C)NC(=O)[C@H](NC(=O)[C@@H](CO)NC(=O)[C@H](CCCCN)NC(=O)[C@@H](CC(C)C)NC(=O)[C@@H](N)Cc2ccccc2)[C@H](C)OC(=O)[C@H](CC(C)C)NC1=O [analogue 6],MIC against MRSA ATCC 33591,MRSA ATCC 33591; [10],> 32 µg/mL
CC(C)C[C@@H]1NC(=O)[C@H](C)NC(=O)[C@H](NC(=O)[C@H](CO)NC(=O)[C@H](CCCCN)NC(=O)[C@@H](CC(C)C)NC(=O)[C@H](N)Cc2ccccc2)[C@H](C)OC(=O)[C@H](CC(C)C)NC1=O [analogue 7],MIC against MRSA ATCC 33591,MRSA ATCC 33591; [10],> 32 µg/mL and 32 µg/mL
CC(C)C[C@@H]1NC(=O)[C@H](C)NC(=O)[C@H](NC(=O)[C@H](CO)NC(=O)[C@H](CCCCN)NC(=O)[C@H](CC(C)C)NC(=O)[C@@H](N)Cc2ccccc2)[C@H](C)OC(=O)[C@H](CC(C)C)NC1=O [analogue 8],MIC against MRSA ATCC 33591,MRSA ATCC 33591; [10],> 32 µg/mL
CC(C)C[C@@H]1NC(=O)[C@H](C)NC(=O)[C@H](NC(=O)[C@@H](CO)NC(=O)[C@@H](CCCCN)NC(=O)[C@@H](CC(C)C)NC(=O)[C@H](N)Cc2ccccc2)[C@H](C)OC(=O)[C@H](CC(C)C)NC1=O [analogue 9],MIC against MRSA ATCC 33591,MRSA ATCC 33591; [10],16 µg/mL
CC[C@H](C)[C@@H]1NC(=O)[C@H](CC(C)C)NC(=O)[C@H](C)NC(=O)[C@H](NC(=O)[C@H](CO)NC(=O)[C@@H](CCCCN)NC(=O)[C@@H](CC(C)C)NC(=O)[C@@H](N)Cc2ccccc2)[C@H](C)OC1=O [analogue 10] (H-F[dL][dK]S[dT]ALI; ester 5-C),MIC against MRSA ATCC 33591,MRSA ATCC 33591; [10],8 µg/mL
"CC(C)C[C@@H]1NC(=O)[C@H](C)NC(=O)[C@H](NC(=O)[C@H](CO)NC(=O)[C@@H](CCCCN)NC(=O)[C@H](NC(=O)[C@@H](N)Cc2ccccc2)C2CCCCC2)[C@H](C)OC(=O)[C@H](CC(C)C)NC1=O [analogue 11, Leu2Chg–Novltex] (H-F[dChg][dK]S[dT]ALL; ester 5-C)",fold decrease in antibacterial activity (MIC) compared to analogue 12,MRSA ATCC 33591; MRSA ATCC 33591,32 fold
same,MIC against MRSA ATCC 33591,MRSA ATCC 33591; [11],8 µg/mL
"CC(C)C[C@@H]1NC(=O)[C@H](C)NC(=O)[C@H](NC(=O)[C@H](CO)NC(=O)[C@@H](CCCCN)NC(=O)[C@@H](Cc2c[nH]c3ccccc23)NC(=O)[C@@H](N)Cc2ccccc2)[C@H](C)OC(=O)[C@H](CC(C)C)NC1=O [analogue 13, Leu2Trp–Novltex] (H-F[dW][dK]S[dT]ALL; ester 5-C)",MIC against MRSA ATCC 33591,MRSA ATCC 33591; [11],> 32 µg/mL
"CC(C)C[C@@H]1NC(=O)[C@H](C)NC(=O)[C@H](NC(=O)[C@H](CO)NC(=O)[C@@H](CCCCN)NC(=O)[C@@H](Cc2ccccc2)NC(=O)[C@@H](N)Cc2ccccc2)[C@H](C)OC(=O)[C@H](CC(C)C)NC1=O [analogue 14, Leu2Phe–Novltex] (H-F[dF][dK]S[dT]ALL; ester 5-C)",MIC against MRSA ATCC 33591,MRSA ATCC 33591; [11],8 µg/mL
"CC(C)C[C@@H]1NC(=O)[C@H](C)NC(=O)[C@H](NC(=O)[C@H](CO)NC(=O)[C@@H](CCCCN)NC(=O)[C@@H](Cc2ccc(O)cc2)NC(=O)[C@@H](N)Cc2ccccc2)[C@H](C)OC(=O)[C@H](CC(C)C)NC1=O [analogue 15, Leu2Tyr–Novltex] (H-F[dY][dK]S[dT]ALL; ester 5-C)",MIC against MRSA ATCC 33591,MRSA ATCC 33591; [11],>32 µg/mL
Clovibactin,"MIC, Enterococcus faecium 1563254","[1]; MDR clinical isolate 1563254, MHB, 0.002% polysorbate 80, 37 °C, 24 h, daptomycin with 50 mg/L calcium chloride",0.063 µg/mL
same,"MIC, Enterococcus faecium 1581582","[1]; MDR clinical isolate 1581582, MHB, 0.002% polysorbate 80, 37 °C, 24 h, daptomycin with 50 mg/L calcium chloride",0.25 µg/mL
same,"MIC, Enterococcus faecium 1766686","[1]; MDR clinical isolate 1766686, MHB, 0.002% polysorbate 80, 37 °C, 24 h, daptomycin with 50 mg/L calcium chloride",0.25 µg/mL
same,"MIC, Staphylococcus aureus NR 45914","[2]; MDR strain NR 45914, MHB, 0.002% polysorbate 80, 37 °C, 24 h, daptomycin with 50 mg/L calcium chloride",0.063 µg/mL
same,"MIC, Staphylococcus aureus NR 45926","[2]; MDR strain NR 45926, MHB, 0.002% polysorbate 80, 37 °C, 24 h, daptomycin with 50 mg/L calcium chloride",0.063 µg/mL
same,"MIC, Staphylococcus aureus NR 45930","[2]; MDR strain NR 45930, MHB, 0.002% polysorbate 80, 37 °C, 24 h, daptomycin with 50 mg/L calcium chloride",0.25 µg/mL
same,"MIC, Staphylococcus aureus NR 46062","[2]; MDR strain NR 46062, MHB, 0.002% polysorbate 80, 37 °C, 24 h, daptomycin with 50 mg/L calcium chloride",0.063 µg/mL
